Consider ten molecules from patent publication US20250296959A1, “B7-H3 TARGETING PEPTIDES AND CONSTRUCTS THEREOF” (Mariana Oncology Inc., priority 2024, published 2025).

Starred links: 1 amine or outer side, 2 acyl side, 3 side chain; linkers in the order of their positions; H or OH if unused. Positions of bridges follow the written chain, without caps; N, C: chain ends. Non-standard residues stand in square brackets, D forms with d. Residues, ends and D or L forms follow the SMILES beside them. Groups on a side chain read outwards from the residue. Primed or numbered codes have the meaning given here. *: point of attachment. Ala(piperidin-4-yl) = O=C([C@H](CC1CCN([*:3])CC1)N[*:1])[*:2]; DOTA = O=C(O)CN1CCN(CC(=O)O)CCN(CC(=O)*)CCN(CC(=O)O)CC1; PipAla = piperidinyl-alanine residue (as named); Phe(4-COOH) = N[C@@H](Cc1ccc(C(=O)O)cc1)C(=O)O; Trp(5-F) = N[C@@H](Cc1c[nH]c2ccc(F)cc12)C(=O)O; X1 = C[C@@H](c1ccccc1)[C@H](N[*:1])C(=O)[*:2]; PEG4′ = 4x 3-(2-aminoethoxy)propanoic acid; γGlu = O=C(O)[C@H](CCC(=O)[*:2])N[*:1]; 1Nal = N[C@@H](Cc1cccc2ccccc12)C(=O)O; Ala(4-THP) = N[C@@H](CC1CCOCC1)C(=O)O; Lys(Me2) = CN(C)CCCC[C@H](N)C(=O)O; Val(3-OH) = CC(C)(O)[C@H](N)C(=O)O; hCha = N[C@@H](CCC1CCCCC1)C(=O)O; PEG4 = NCCOCCOCCOCCOCCC(=O)O; Tle = CC(C)(C)[C@H](N)C(=O)O; hLeu = CC(C)CC[C@H](N)C(=O)O; Nle = CCCC[C@H](N)C(=O)O; PEG8′ = not defined here

One test deals with T1, 2Ig B7-H3 (Homo sapiens, UniProt Q5ZPR3).
T1 sequence (Q5ZPR3 29-316 isoform Q5ZPR3-2 limits assumed): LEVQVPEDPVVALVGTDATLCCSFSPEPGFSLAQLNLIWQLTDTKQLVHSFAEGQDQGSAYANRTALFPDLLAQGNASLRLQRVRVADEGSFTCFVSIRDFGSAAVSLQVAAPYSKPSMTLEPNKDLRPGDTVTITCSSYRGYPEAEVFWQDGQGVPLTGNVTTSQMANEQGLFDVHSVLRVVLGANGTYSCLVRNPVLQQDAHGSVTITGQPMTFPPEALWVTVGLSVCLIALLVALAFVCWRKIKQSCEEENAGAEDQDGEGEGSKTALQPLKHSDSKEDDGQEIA
Description: SPR binding affinity to 2Ig B7-H3. Conditions: 37° C.; read-out: 2Ig B7-H3_KD (nM) at 37° C.

For test [1], the system named is Calu-6 cell line. Description: Cell associated (bound) fraction of [177Lu]Lu-labeled peptide in Calu-6 cells. Conditions: 1 hour, 37° C. It counts as cell-based, Human. The method in brief: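 Detached B7-H3-expressing human lung cancer cells at 5 million/mL were exposed for 1 hour at 37 °C to 0.8 μCi of the 177Lu-labelled peptide, which was formulated in 1% PBSA after labelling at 80 °C, pH ~5. Supernatant and two cold washes counted as unbound, and resuspended cells gamma-counted as the cell-associated fraction.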

The next test deals with T2, human 4lg B7-H3 (Homo sapiens, UniProt Q5ZPR3).
T2 sequence (Q5ZPR3 29-534): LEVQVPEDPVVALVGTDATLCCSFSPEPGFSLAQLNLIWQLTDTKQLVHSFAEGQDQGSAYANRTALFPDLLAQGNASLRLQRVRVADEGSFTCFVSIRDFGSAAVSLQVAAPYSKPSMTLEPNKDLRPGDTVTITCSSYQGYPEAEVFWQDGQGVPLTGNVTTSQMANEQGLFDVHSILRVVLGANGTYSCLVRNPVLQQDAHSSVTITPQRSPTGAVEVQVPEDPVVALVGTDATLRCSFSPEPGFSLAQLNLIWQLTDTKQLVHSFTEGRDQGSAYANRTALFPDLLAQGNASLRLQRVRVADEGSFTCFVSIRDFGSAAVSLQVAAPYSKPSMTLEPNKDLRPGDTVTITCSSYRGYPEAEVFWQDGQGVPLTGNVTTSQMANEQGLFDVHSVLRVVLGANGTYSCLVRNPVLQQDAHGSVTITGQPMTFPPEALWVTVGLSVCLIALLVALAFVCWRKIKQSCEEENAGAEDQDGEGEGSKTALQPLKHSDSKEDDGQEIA
Description: Affinity determination by surface plasmon resonance (SPR) to 4Ig B7-H3. Particulars: SPR KD—37° C., 4Ig B7-H3; 37° C. flow cell temperature.

Test [2] concerns Calu-6 cell line. The test can be described thus: Net internalization of [177Lu]Lu-labeled peptide in Calu-6 cells. Conditions: 1 hour, 37° C., glycine pH 2.5 acid wash. Format: cell-based, Human. The procedure, abridged:
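Calu-6 cells, human non-engineered lung cancer expressing B7-H3, resuspended in 1% PBSA at 5 million cells/mL and incubated with the 177Lu-labeled conjugate (labeled at 80 °C, pH ~5, RP-HPLC checked). Gamma counting of the bound fraction, then of the pellet after two glycine pH 2.5 acid strips and NaOH lysis, gives internalized activity.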

Test [3] deals with Biotinylated human 4Ig B7-H3 (human) (UniProt Q5ZPR3). The test can be described thus: SPR 37C; A = KD<=1.0 nM.
For test [4], the target named is T3, Biotinylated human 4Ig B7-H3 (human, UniProt Q5ZPR3 29-461, limits assumed, biotinylated (site not stated)).
T3 construct: Protein captured on the SA chip for SPR; also called 4lg-B7-H3; B7-H3 isoform 4Ig
T3 sequence: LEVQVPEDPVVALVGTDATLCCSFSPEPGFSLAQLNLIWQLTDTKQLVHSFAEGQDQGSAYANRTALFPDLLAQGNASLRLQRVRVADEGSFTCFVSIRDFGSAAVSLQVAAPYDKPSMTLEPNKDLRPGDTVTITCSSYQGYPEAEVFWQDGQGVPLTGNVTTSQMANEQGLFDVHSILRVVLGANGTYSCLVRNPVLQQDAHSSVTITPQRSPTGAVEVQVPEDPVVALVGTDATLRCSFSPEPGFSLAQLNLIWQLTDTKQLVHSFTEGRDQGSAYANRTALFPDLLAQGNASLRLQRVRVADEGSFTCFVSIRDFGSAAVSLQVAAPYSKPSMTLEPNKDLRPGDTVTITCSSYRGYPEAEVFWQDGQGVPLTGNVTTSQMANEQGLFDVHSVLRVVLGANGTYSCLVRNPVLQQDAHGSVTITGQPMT
Description: SPR 37C; C = 10<KD<=100 nM.

`CC(=O)N[C@@H](CCC(C)C)C(=O)N[C@@H](Cc1ccc(O)cc1)C(=O)N[C@H]1CSSC[C@@H](C(=O)N[C@@H](Cc2c[nH]c3ccc(F)cc23)C(=O)N[C@@H](Cc2ccccc2)C(=O)N[C@H](C(=O)N[C@H](CCC(=O)O)C(N)=O)C(C)(C)O)NC(=O)[C@H](Cc2ccc(O)cc2)NC(=O)[C@H](C(C)C)NC(=O)[C@H](CC(=O)O)NC(=O)[C@H](CC2CCN(C(=O)CCOCCOCCOCCOCCNC(=O)CN3CCN(CC(=O)O)CCN(CC(=O)O)CCN(CC(=O)O)CC3)CC2)NC(=O)[C@H](CCCCN)NC(=O)CNC(=O)[C@H](C(C)(C)C)NC1=O` [compound 410, Ac-hLeu-Y-C-Tbg-G-K-Pip(PEG4-DOTA)Ala-D-V-Y-C-5FW-F-hydroxyVal-dGlu-CONH2] (Ac-[hLeu]YC[Tle]GK[Ala(piperidin-4-yl)]([PEG4-DOTA])DVYC[Trp(5-F)]F[Val(3-OH)][dE]-NH2; disulfide 3-11): the figures for the Kd at 2Ig B7-H3 and at human 4lg B7-H3 were 820 nM and less than 1 nM, respectively. The “% cell associated fraction” value with Calu-6 cell line [1] is listed as “B (25<%≤50)”. Besides, the “% net internalization” value in the test on Calu-6 cell line [2] was “A (%≤25)”.

On to `CC(=O)N[C@@H](CCC(C)C)C(=O)N[C@@H](Cc1ccc(O)cc1)C(=O)N[C@H]1CSSC[C@@H](C(=O)N[C@@H](Cc2c[nH]c3ccc(F)cc23)C(=O)N[C@H](C(=O)N[C@H](C(=O)N[C@H](C)C(=O)O)C(C)(C)O)[C@@H](C)c2ccccc2)NC(=O)[C@H](Cc2ccc(O)cc2)NC(=O)[C@H](C(C)C)NC(=O)[C@H](CC(=O)O)NC(=O)[C@H](CC2CCN(C(=O)CCOCCOCCOCCOCCNC(=O)CN3CCN(CC(=O)O)CCN(CC(=O)O)CCN(CC(=O)O)CC3)CC2)NC(=O)[C@H](CCCCN(C)C)NC(=O)CNC(=O)[C@H](C(C)(C)C)NC1=O` [compound 521, Ac-hLeu-Y-C-Tbg-G-Lys(Me)2-Pip(PEG4-DOTA)Ala-D-V-Y-C-5FW-[(2S, 3S)beta-Me-Phe]-hydroxyVal-dAla-COOH] (Ac-[hLeu]YC[Tle]G[Lys(Me2)][Ala(piperidin-4-yl)]([PEG4-DOTA])DVYC[Trp(5-F)][X1][Val(3-OH)][dA]-OH; disulfide 3-11), for which the figures for the Kd at 2Ig B7-H3 and at human 4lg B7-H3 were 260 nM and less than 1 nM, respectively.

As for `CC(=O)N[C@@H](CCC(C)C)C(=O)N[C@@H](Cc1ccc(O)cc1)C(=O)N[C@H]1CSSC[C@@H](C(=O)N[C@@H](Cc2c[nH]c3ccc(F)cc23)C(=O)N[C@@H](Cc2ccccc2)C(=O)N[C@H](C(=O)N[C@H](CCC(=O)O)C(N)=O)C(C)(C)O)NC(=O)[C@H](Cc2ccc(O)cc2)NC(=O)[C@H](C(C)C)NC(=O)[C@H](CC(=O)O)NC(=O)[C@H](CC2CCOCC2)NC(=O)[C@H](CC2CCN(C(=O)CC[C@H](NC(=O)CN3CCN(CC(=O)O)CCN(CC(=O)O)CCN(CC(=O)O)CC3)C(=O)O)CC2)NC(=O)CNC(=O)[C@H](C(C)(C)C)NC1=O` [compound 475, Ac-hLeu-Y-C-Tbg-G-Pip(gE-DOTA)Ala-ThpA-D-V-Y-C-5FW-F-hydroxyVal-dGlu-CONH2] (Ac-[hLeu]YC[Tle]G[Ala(piperidin-4-yl)]([γGlu-DOTA])[Ala(4-THP)]DVYC[Trp(5-F)]F[Val(3-OH)][dE]-NH2; disulfide 3-11), the Kd on 2Ig B7-H3 is greater than 10000 nM; on human 4lg B7-H3, 1 to 10 nM.

For the molecule `CC(=O)N[C@@H](CCC(C)C)C(=O)N[C@@H](Cc1ccc(O)cc1)C(=O)N[C@H]1CSSC[C@@H](C(=O)N[C@@H](Cc2c[nH]c3ccc(F)cc23)C(=O)N[C@@H](Cc2ccccc2)C(=O)N[C@H](C(=O)N[C@H](CO)C(N)=O)C(C)(C)O)NC(=O)[C@H](Cc2ccc(O)cc2)NC(=O)[C@H](C(C)C)NC(=O)[C@H](CC(=O)O)NC(=O)[C@H](CC2CCN(C(=O)CCOCCOCCOCCOCCNC(=O)CN3CCN(CC(=O)O)CCN(CC(=O)O)CCN(CC(=O)O)CC3)CC2)NC(=O)[C@H](CCCCN)NC(=O)CNC(=O)[C@H](C(C)(C)C)NC1=O` [compound 408, Ac-hLeu-Y-C-Tbg-G-K-Pip(PEG4-DOTA)Ala-D-V-Y-C-5FW-F-hydroxyVal-dSer-CONH2] (Ac-[hLeu]YC[Tle]GK[Ala(piperidin-4-yl)]([PEG4-DOTA])DVYC[Trp(5-F)]F[Val(3-OH)][dS]-NH2; disulfide 3-11), the Kd is 920 nM on 2Ig B7-H3 and less than 1 nM on human 4lg B7-H3. Besides, in the test with Calu-6 cell line [1], the “% cell associated fraction” value is “C (%>50)”. Moreover, the “% net internalization” value in the test with Calu-6 cell line [2] was “A (%≤25)”.

Consider `CC(=O)N[C@@H](CCC(C)C)C(=O)N[C@@H](Cc1ccc(O)cc1)C(=O)N[C@H]1CSSC[C@@H](C(=O)N[C@@H](Cc2c[nH]c3ccc(F)cc23)C(=O)N[C@@H](Cc2ccccc2)C(=O)N[C@H](C(=O)O)C(C)(C)O)NC(=O)[C@H](Cc2ccc(O)cc2)NC(=O)[C@H](C(C)C)NC(=O)[C@H](CC(=O)O)NC(=O)[C@H](CC2CCN(C(=O)CN3CCN(CC(=O)O)CCN(CC(=O)O)CCN(CC(=O)O)CC3)CC2)NC(=O)[C@H](CCCCN)NC(=O)CNC(=O)[C@H](C(C)(C)C)NC1=O` [compound 344, Ac-hLeu-Y-C-Tbg-G-K-Pip(DOTA)Ala-D-V-Y-C-5FW-F-hydroxyVal-COOH] (Ac-[hLeu]YC[Tle]GK[Ala(piperidin-4-yl)](DOTA)DVYC[Trp(5-F)]F[Val(3-OH)]-OH; disulfide 3-11), for which the Kd at 2Ig B7-H3 is 6200 nM; at human 4lg B7-H3 it was 1 to 10 nM.

Molecule Ac-[hLeu]YC[Tle]G[Ala(piperidin-4-yl)][Phe(4-COOH)]DVYC[1Nal]FP[dK](DOTA)-NH2 (disulfide 3-11 (inferred)) [Cpd 314] registered a KD in test [3] of less than 1 nM.

B1: Cpd 29 (peptide)
peptide: Ac-[Nle]YCVGKYDVYCWFE[dK](DOTA)-NH2
modifications: disulfide 3-11
SMILES: CCCC[C@H](NC(C)=O)C(=O)N[C@@H](Cc1ccc(O)cc1)C(=O)N[C@H]1CSSC[C@@H](C(=O)N[C@@H](Cc2c[nH]c3ccccc23)C(=O)N[C@@H](Cc2ccccc2)C(=O)N[C@@H](CCC(=O)O)C(=O)N[C@H](CCCCNC(=O)CN2CCN(CC(=O)O)CCN(CC(=O)O)CCN(CC(=O)O)CC2)C(N)=O)NC(=O)[C@H](Cc2ccc(O)cc2)NC(=O)[C@H](C(C)C)NC(=O)[C@H](CC(=O)O)NC(=O)[C@H](Cc2ccc(O)cc2)NC(=O)[C@H](CCCCN)NC(=O)CNC(=O)[C@H](C(C)C)NC1=O
The molecule B1 came in with a KD in test [4] of 10 to 100 nM.

In test [4], {DOTA-PEG8′}-[Nle]YCVGKYDVYCWF-NH2 (disulfide 3-11) [Cpd 5] came in with a KD of 10 to 100 nM.

For the molecule Ac-[hCha]YC[Tle]G[PipAla]([PEG4′-DOTA])[Ala(4-THP)]DVYC[Trp(5-F)]F[Val(3-OH)][dA]-OH (disulfide 3-11 (inferred)) [Cpd 485], in test [3], the KD is less than 1 nM.

Ac-[Nle]YCVGKYDVYCWFT-OH (disulfide 3-11) [Cpd 33] had a KD in test [4] of 10 to 100 nM.
